{
  "source": "patent US20100284925A1",
  "about": "“Small Molecule Intervention for Obesity” (priority 2006, published 2010)",
  "key": {"adiponectin": {"system": "adiponectin", "test": "Adiponectin release into conditioned media (Western blot)", "format": "cell-based", "description": "(§1) FIG. 10. Release of adiponectin and PLTP by preadipocytes and adipocytes, and in serum of normal mice. Preadipocytes (B and D) were treated with 2 μM of prieurianin and media collected after 36 hrs for Western blot analysis of either adiponectin (A and B) or PLTP (C and D). Alternatively, five days following differentiation, conditioned media of adipocyets (A and C) were collected for Western analysis. E. Serum of normal C57BL/6J mice given prieurianin or topotecan (0, 2, 5, and 10 mg/kg) was analyzed by Western blot for PLTP.\nAdipose tissue contains various types of cells including preadipocytes and adipocytes. Also, preadipocytes secrete factors involved in their own differentiation. Once differentiated, the mature adipocytes acquire the ability to communicate distally with other organs including brain, liver, and skeletal muscle and locally with other cells such as preadipocytes, endothelial cells and monocytes/macrophages by secreting leptin and adiponectin. In addition, anti-adipogenic cytokines prevent the release of adiponectin by preadipocytes. Thus, the production of adiponectin and PLTP by preadipocytes and adipocytes was assessed."}, "[1]": {"test": "Diet-induced obese (DIO) C57BL/6J (B6) mice", "format": "in vivo", "description": "FIG. 16. Effects of prieurianin in diet-induced obese C57Bl/6J mice. B6 mice were put on 60% kcal high fat diet for approximately 15 weeks and then divided into groups of 10 and were then treated with either 1 (green) or 3 (brown) mg/kg of prieurianin daily intraperitoneally for three weeks compared to untreated (blue) or vehicle-treated (red) controls.\nFIG. 16A. Average weight changes of mice treated with prieurianin compared to controls through three weeks of treatment.\nFIG. 16B. Average food consumption in B6 mice treated with prieurianin as in FIG. 16A.\nFIG. 16C. Average weight changes in B6 mice treated with prieurianin on an “on-off” cyclical schedule for a total of 4 cycles described in the text. Results are the means S.E. of 10 animals per group, and the 3 mg/kg group with 20 mice.\nThe B6 mice were fed a 60% kcal high fat diet for approximately 15 weeks to gain weight and then treated with either 1 or 3 mg/kg of prieurianin intraperitoneally daily for 3 weeks. Mice continued to have access to the 60% kcal diet ad libitum during treatment.\nTo circumvent the problem of drug induced tolerance, a new protocol was developed where prieurianin treatment was stopped with the DIO mice, and the mice continued to be maintained on the high fat 60% kcal diet. Four weeks later, the mice were treated again with the following protocol: either 3 mg/kg of prieurianin for 5 days and followed by 5 days of drug holiday (no treatment), with the treatment repeated for 3 more cycles; or 5 mg/kg of prieurianin for 3 days and followed by 5 days of drug holiday, with the treatment repeated for 3 more cycles."}, "[2]": {"test": "Body weight in leptin-receptor deficient db/db mice", "format": "in vivo", "description": "FIG. 15A. Groups of 10 db/db mice were given either 3 or 5 mg/kg of prieurianin i.p. daily for 30 days.\nThe effects of prieurianin were tested in three additional mouse models of obesity including the genetically hyperinsulinemic leptin-receptor deficient db/db, the Ceacam−/− glucose intolerant/diabetic, and the diet-induced obese mice. Prieurianin was administered intraperitoneally (i.p.) to 12-14 week-old db/db mice daily (3 or 5 mg/kg) for 30 days. The diet-induced obese Ceacam−/− diabetic mice were fed a high fat diet for 4 weeks for fattening, followed by prieurianin treatment (3 or 5 mg/kg) for 3 weeks. Vehicle treated controls received equivolume injections of Captisol (CyDex Inc., Lenexa, Kans.). Body weight and food intake were measured every three days, and blood samples were collected at the end of the experiment."}, "[3]": {"system": "20-hydroxyecdysone activity", "conditions": "drosophila cells in culture; cited from earlier work"}, "PPARγ": {"system": "PPARγ", "test": "PPARγ response element luciferase reporter in L1 preadipocytes", "format": "cell-based", "conditions": "prieurianin 2 μM", "description": "FIG. 18. Effects of prieurianin on C/EBPα and β and PPARγ mediated transcription in adipogenesis. Response elements corresponding to C/EBPα and β and PPARγ are cloned into the pGL3 basic luciferase reporter plasmid. L1 preadipocytes were contransfected with the reporter plasmid either in the presence or the absence of the corresponding transcription factors cloned into expression vector, followed by treatment with 2 μM of prieurianin. Cells were harvested for luciferase assay 15-24 hrs later. Results are means±S.E. of triplicate experiments."}, "[4]": {"test": "Body weight, food intake, serum parameters and adiposity in normal C57BL/6J mice", "format": "in vivo", "description": "FIG. 4. Effects of prieurianin on blood insulin, glucose and NEFA levels. Normal and ob/ob mice were treated with 5 mg/kg of prieurianin and serum samples were then collected for (FIG. 4A) insulin; (FIG. 4B) glucose; and (FIG. 4C) non-esterified fatty acid (NEFA) profiling. Results are means of three animals per group for each treatment. Blue column, normal C57BL/6J; and red column, leptin-deficient ob/ob mice.\nPrieurianin was administered intraperitoneally to 12-14 week-old normal C57BL/6J mice and the genetically leptin-deficient ob/ob mice (2 or 5 mg/kg) twice a week for two weeks. Controls received equivolume injections of drug vehicle. Body weight and food intake were measured every three days, and blood samples were collected at the end of the experiment.\nObesity contributes to hypertension, high serum cholesterol, low HDL cholesterol, and hyperglycemia, thus potentially leading to higher risk of cardiovascular disease. Abdominal obesity especially correlates with metabolic risk factors. The leptin-deficient ob/ob mice are hyperlipidemic, and hyperglycemic. To test whether prieurianin altered the metabolic or endocrinological parameters in addition to appetite, the serum lipid profile, insulin and glucose levels were measured.\nTo further examine the effects of prieurianin on the adiposity of the normal C57BL/6J and the ob/ob mice, we measured their visceral and subcutaneous body fat."}, "PLTP": {"system": "PLTP", "test": "PLTP release into conditioned media (Western blot)", "format": "cell-based", "description": "as §1\nThe expression and secretion of PLTP by preadipocytes and adipocytes was also assessed. Thus, preadipocytes produced and released both the low and the high molecular weight forms of PLTP, while adipocytes secreted only the low molecular weight form (see FIGS. 10C and 10D) into the conditioned media."}, "NIH-3T3/L1 preadipocytes": {"system": "NIH-3T3/L1 preadipocytes", "format": "cell-based", "conditions": "2 μM", "description": "FIG. 7D. Flow cytometric analysis of annexin V binding to phosphatidylserine, apoptotic cells are on the upper right quadrant. All experiments were conducted in triplicate."}, "NFκB": {"system": "NFκB", "test": "NFκB-response element luciferase reporter in L1 preadipocytes", "format": "cell-based", "conditions": "prieurianin 2 μM"}, "[5]": {"test": "Cytotoxicity in cell culture studies", "format": "cell-based", "conditions": "data not shown"}},
  "note": "Entries after “also recorded” stand apart in the source; their conditions may differ.",
  "data": [
    {"smiles": "C=C1[C@@H]([C@@]2(C)[C@@H](OC(C)=O)CC(=O)O[C@](C)(COC(C)=O)[C@@H]2C(=O)OC)[C@@H](OC=O)[C@H](OC(=O)[C@H](O)[C@H](C)CC)[C@@]2(C)[C@H](c3ccoc3)CC(=O)[C@]12O", "note": "[prieurianin]", "values": [
      {"measurement": "adiponectin release by preadipocytes", "setting": "adiponectin; NIH-3T3/L1 preadipocytes, approximately 36 hrs after treatment", "value": "inhibition of adiponectin release"},
      {"measurement": "adiponectin production and release in differentiated adipocytes", "setting": "adiponectin; differentiated adipocytes", "value": "induced the production and release of high molecular weight form, as well as a modest increase in the secretion of total adiponectin"},
      {"measurement": "decrease in food consumption", "setting": "[1]; 1 or 3 mg/kg i.p. daily", "value": "70-80%"},
      {"measurement": "weight loss of total body weight", "setting": "[1]; 1 or 3 mg/kg i.p. daily, within seven days of treatment", "value": "up to 10%"},
      {"measurement": "body weight course after attained weight loss", "setting": "[1]; daily treatment for 3 weeks", "value": "gradual increase in body weight after week two"},
      {"measurement": "decrease in body weight", "setting": "[1]; on-off cyclical schedule, 3 or 5 mg/kg, 4 cycles", "value": "up to 20%"},
      {"measurement": "reduction of food consumption", "setting": "[1]; on-off cyclical treatment protocol", "value": "approximately 40%"},
      {"measurement": "weight loss", "setting": "[2]; 3 or 5 mg/kg i.p. daily", "value": "No weight loss was observed"},
      {"measurement": "attenuation of weight gain", "setting": "[2]; over three weeks, vs untreated or vehicle-treated controls", "value": 50, "unit": "%"},
      {"measurement": "antagonism against 20-hydroxyecdysone activity", "setting": "[3]", "value": "antagonism against 20-hydroxyecdysone activity"},
      {"measurement": "transactivation potential of PPARγ", "setting": "PPARγ", "value": "inhibits the transactivation potential"},
      {"measurement": "food intake", "setting": "[4]; normal C57BL/6J mice", "value": "reduced food intake"},
      {"measurement": "glucose levels", "setting": "[4]; normal C57BL/6J mice", "value": "did not alter the insulin or the glucose levels significantly"},
      {"measurement": "insulin levels", "setting": "[4]; normal C57BL/6J mice", "value": "did not alter the insulin or the glucose levels significantly"},
      {"measurement": "serum PLTP activity", "setting": "[4]; normal C57BL/6J mice", "value": "increase in serum PLTP activity"},
      {"measurement": "body weight", "setting": "[4]; normal C57BL/6J mice, 2 or 5 mg/kg i.p. twice a week, two weeks", "value": "modest body weight loss"},
      {"measurement": "percent body fat", "setting": "[4]; normal C57BL/6J mice, any dose", "value": "not significantly altered"},
      {"measurement": "NEFA levels", "setting": "[4]; normal mice", "value": "decrease in NEFA levels"},
      {"measurement": "leptin levels", "setting": "[4]; normal mice", "value": "decrease in leptin levels"},
      {"measurement": "HDL levels", "setting": "[4]; normal mice, serum", "value": "remained relatively unchanged"},
      {"measurement": "total cholesterol level", "setting": "[4]; normal mice, serum", "value": "remained relatively unchanged"},
      {"measurement": "triglyceride levels", "setting": "[4]; normal mice, serum", "value": "no significant changes"},
      {"measurement": "release of PLTP by adipocytes", "setting": "PLTP; adipocytes", "value": "induced an increase in the release of only the low molecular weight form of PLTP"},
      {"measurement": "release of PLTP by preadipocytes", "setting": "PLTP; preadipocytes", "value": "release of the low but not the high molecular form of PLTP was reduced"},
      {"measurement": "apoptosis (annexin V binding to phosphatidylserine)", "setting": "NIH-3T3/L1 preadipocytes", "value": "did not differentially induce apoptosis"},
      {"measurement": "NFκB-response element mediated transcription", "setting": "NFκB", "value": "induces transactivation from the NFκB-response element mediated transcription"},
      {"measurement": "cytotoxicity", "setting": "[5]", "value": "relatively non-cytotoxic compared with topotecan; also recorded: relatively non-cytotoxic compared to topotecan"}
    ]}
  ]
}
